# Columns and labels:
# aqueous solubility = format: physicochemical
# Experimental: The chemical structures of DMX-5804 and DMX-10001 are compared in Fig. 1a, highlighting the phosphate moiety of the pro-drug. The aqueous solubility of DMX-10001 was > 400-fold greater than that of DMX-5804, allowing it to be infused i.v. without prohibitive fluid volumes. Cleavage to DMX-5804 was detectable in rats within 5 min and largely complete within 60 min (Fig. 1b). Data from i.v. infusion at a range of dose levels in the pig were simultaneously fit to a three-compartment pharmacokinetic model. Plasma protein binding in pig was used to determine free drug levels (not shown). Various dosing regimens were simulated to avoid an initial spike in DMX-5804 whilst rapidly achieving the efficacious drug levels seen in mice after oral gavage (Fig. 1c).
# porcine model of MI = test: efficacy study: convertible ventricular fibrillation and defibrillation; parameters: species or system swine; conditions: in vivo
# Experimental: Investigators involved in the experimental protocol and analysis of the data were blinded to the treatment status of each pig. Animals were randomly assigned to the treatment groups in two blocks, using a random number series generated online. To control further for potential investigator bias, inclusion and exclusion criteria were formulated prior to the onset of the study. Only healthy pigs weighing 38–48 kg, with a body temperature between 37.0 and 40.0 °C at the start of surgical preparation, were included. Exclusion criteria were: (i) Encountering ventricular fibrillation (VF) during the experimental protocol that could not be converted to sinus rhythm within 2 min. (ii) Encountering VF > 4 times before starting the drug or vehicle infusion. (iii) Developing progressive pump failure (mean arterial pressure (MAP) < 30 mmHg) during first 30 min of reperfusion. […]
# The LAD was catheterized with a standard clinical guiding catheter (JL3.5, 6F, Medtronic, Minneapolis, MN), and quantitative coronary angiography (CAAS, PIE Medical, Maastricht, The Netherlands) was performed following 2 mg isosorbidedinitrate (Cedocard, Nycomed, Hoofddorp, The Netherlands) and using iodixanol as contrast agent (Visipaque™, GE Healthcare BV, Eindhoven, The Netherlands). […] Heart rate, aortic blood pressure, and ECG were monitored until 2 h of reperfusion.
smiles,measurement,setting,value
COCCOc1ccc(-c2cn(-c3ccccc3)c3ncn(COP(=O)(O)O)c(=O)c23)cc1 [DMX-10001],aqueous solubility relative to that of DMX-5804,aqueous solubility,> 400 fold
same,VF during drug infusion,porcine model of MI,did not occur

# Reference: publication PMC8137473, “Preclinical trial of a MAP4K4 inhibitor to reduce infarct size in the pig: does cardioprotection in human stem cell-derived myocytes predict success in large mammals?” (Basic Research in Cardiology, 2021)
